Values after ≈ are worked out from the molar mass of the structure shown. Active and inactive are the calls of the source. No cut-off for these calls is given here.
How the values were obtained:
Staphylococcus aureus = assay: Antimicrobial activity against Staphylococcus aureus by agar diffusion method; type: functional, organism-based
Escherichia coli = assay: Antimicrobial activity against Escherichia coli by agar diffusion method; type: functional, organism-based
Aspergillus niger = assay: Antimicrobial activity against Aspergillus niger by agar diffusion method; type: functional, organism-based
SMMC-7721 = assay: Cytotoxicity against human SMMC7721 cells by colorimetric assay; type: functional, cell-based
SW1990 = assay: Cytotoxicity against human SW1990 cells by colorimetric assay; type: functional, cell-based
NCI-H460 = assay: Cytotoxicity against human NCI-H460 cells by colorimetric assay; type: functional, cell-based

Row | SMILES | Activity (Staphylococcus aureus) | Activity (Escherichia coli) | Activity (Aspergillus niger) | IC50 (SMMC-7721) [µg/mL] | IC50 (SW1990) [µg/mL] | IC50 (NCI-H460) [µg/mL]
1 | C=C(CC[C@@H](C)[C@H]1CC[C@H]2C3=C([C@H](O)C[C@]12C)[C@@]1(C)CC[C@H](O)C[C@@H]1CC3=O)C(C)C | inactive | inactive | inactive | 28 (≈ 65.3 µM) |  | 
2 | C=C(CC[C@@H](C)[C@H]1CC[C@H]2C3=C(CC[C@]12C)[C@@]1(C)CC[C@H](O)C[C@@H]1C(=O)O3)C(C)C | inactive | inactive | inactive | 7 (≈ 16.9 µM) | 28 (≈ 67.5 µM) | 5 (≈ 12.1 µM)
3 | C=C(CC[C@@H](C)[C@H]1CC[C@H]2C3=C(CC[C@]12C)[C@@]1(C)CC[C@H](O)C[C@@H]1CC3=O)C(C)C | inactive | inactive | inactive |  |  | 
